In publication PMC10838382 (Cancer Drug Resistance, 2024):
pIC50: −log10 of the molar value. Like-named read-outs stand apart in the source and are kept apart here. Values belong to the compound of their own block, whether it stands above or below them.

Experiments:
PRXF 22Rv1 = experiment: 2D proliferation assay (CellTiter-Blue); assay type: cell-based; conditions: Homo sapiens, read-out: Relative ritonavir IC50; PRXF 22Rv1; 2D proliferation assay
PRXF DU-145 = experiment: 2D proliferation assay (CellTiter-Blue); assay type: cell-based, human; conditions: 2D proliferation assay
PC-3 = experiment: 2D proliferation assay (CellTiter-Blue); assay type: cell-based; conditions: Homo sapiens, read-out: Relative ritonavir IC50, PC-3
GXA 3011 = experiment: cells; conditions: read-out: Relative ritonavir IC50
GXA NUGC-4 = experiment: cells; conditions: Homo sapiens, NUGC-4, read-out: Relative ritonavir IC50
LXFA EKVX = experiment: cells; conditions: Homo sapiens, read-out: Relative ritonavir IC50
MAXFLB MCF7 = experiment: cells; conditions: Homo sapiens, MCF7, read-out: Relative ritonavir IC50
MAXFTN CAL-51 = experiment: cells; conditions: Homo sapiens, CAL-51, read-out: Relative ritonavir IC50
MAXFTN MCF 10A = experiment: cells; conditions: Homo sapiens, read-out: Relative ritonavir IC50
OVXF 899 = experiment: cells; conditions: read-out: Relative ritonavir IC50
OVXF NCI-ADR-RES = experiment: cells; conditions: Homo sapiens, read-out: Relative ritonavir IC50
DU-145 [1] = conditions: read-out: IC50, single agent ritonavir; DU-145 proliferation assay; cited from earlier work
DU-145 cells = conditions: NCI60 panel, read-out: IC50 value, anti-proliferative effect; cited from earlier work
LXFA 737 = experiment: 2D proliferation assay (CellTiter-Blue); conditions: read-out: Relative ritonavir IC50
MAXFTN MX1 = experiment: 2D proliferation assay (CellTiter-Blue); conditions: read-out: Relative ritonavir IC50
OVXF EFO-27 = experiment: 2D proliferation assay (CellTiter-Blue); conditions: Homo sapiens, EFO-27, read-out: Relative ritonavir IC50
PC-3M = experiment: 2D proliferation assay (CellTiter-Blue); conditions: Homo sapiens, read-out: Relative ritonavir IC50
15 tumor cell lines = experiment: 2D proliferation assay (CellTiter-Blue), panel of 15 tumor cell lines; conditions: at the concentration ranges tested; 2D proliferation assay
DU-145DOC10 = experiment: 3D clonogenic assay (soft agar); assay type: cell-based, human; conditions: for Relative resistance: DU-145DOC10 vs DU-145; for pIC50: Homo sapiens, DU-145DOC10
22Rv1DOC8 = experiment: 3D clonogenic assay (soft agar); assay type: cell-based, human; conditions: 3D clonogenic assay; for pIC50: 22Rv1DOC8, read-out: Cabazitaxel IC50; for Relative resistance: 22Rv1DOC8 vs 22Rv1
DU-145 [2] = experiment: 3D clonogenic assay (soft agar); conditions: for pIC50: Homo sapiens, DU-145, read-out: Cabazitaxel IC50, DU-145, 3D clonogenic assay
22Rv1 = experiment: 3D clonogenic assay (soft agar); conditions: for pIC50: Homo sapiens, 22Rv1, read-out: Cabazitaxel IC50, 22Rv1, 3D clonogenic assay

- pIC50 (PRXF 22Rv1): 4.53
- pIC50 (PRXF DU-145; Homo sapiens, DU-145, read-out: Relative ritonavir IC50, PRXF DU-145): 4.79
- pIC50 (PRXF DU-145; read-out: Relative ritonavir IC50, PRXF DU-145): 4.79
- pIC50 (PC-3): 4.66
- pIC50 (GXA 3011): < 4.52
- pIC50 (GXA NUGC-4): 5.90
- pIC50 (LXFA EKVX): < 4.52
- pIC50 (MAXFLB MCF7): < 4.52
- pIC50 (MAXFTN CAL-51): < 4.52
- pIC50 (MAXFTN MCF 10A): < 4.52
- pIC50 (OVXF 899): 4.59
- pIC50 (OVXF NCI-ADR-RES): < 4.52
- pIC50 (PC-3M): 4.63
Structure (SMILES): CC(C)c1nc(CN(C)C(=O)N[C@H](C(=O)N[C@@H](Cc2ccccc2)C[C@H](O)[C@H](Cc2ccccc2)NC(=O)OCc2cncs2)C(C)C)cs1 [Ritonavir]
- pIC50 (DU-145 [1]): 5.52
- pIC50 (DU-145 cells): < 4.70
- pIC50 (LXFA 737): < 4.52
- pIC50 (MAXFTN MX1): < 4.65
- pIC50 (OVXF EFO-27): < 4.52
- single agent activity (15 tumor cell lines): no considerable or only low activity

- pIC50 (DU-145DOC10; 3D clonogenic assay, + ritonavir 10 µM, read-out: Cabazitaxel IC50): 9.22
- pIC50 (DU-145DOC10; 3D clonogenic assay, without ritonavir, read-out: Cabazitaxel IC50): 8.82
- pIC50 (DU-145DOC10; cabazitaxel alone, Figure 7A, read-out: IC 50): 8.84
- pIC50 (22Rv1DOC8; + ritonavir 32 µM): 9.15
- pIC50 (22Rv1DOC8; Homo sapiens, + ritonavir 10 µM): 8.28
- pIC50 (22Rv1DOC8; Homo sapiens, + ritonavir 32 µM): 9.22
- pIC50 (22Rv1DOC8; Homo sapiens, without ritonavir): 8.02
- pIC50 (DU-145 [2]; + ritonavir 10 µM): 9.52
- pIC50 (DU-145 [2]; without ritonavir): 9.22
- pIC50 (22Rv1; + ritonavir 10 µM): 9.15
- pIC50 (22Rv1; + ritonavir 32 µM): 9.15
- pIC50 (22Rv1; without ritonavir): 9.15
Structure (SMILES): CO[C@H]1C(=O)[C@]2(C)[C@@H](OC)C[C@H]3OC[C@@]3(OC(C)=O)[C@H]2[C@H](OC(=O)c2ccccc2)[C@]2(O)C[C@H](OC(=O)[C@H](O)[C@@H](NC(=O)OC(C)(C)C)c3ccccc3)C(C)=C1C2(C)C [Cabazitaxel]
- Relative resistance (DU-145DOC10; cabazitaxel + ritonavir 10 µM, 3D clonogenic assay): 1.0
- Relative resistance (DU-145DOC10; cabazitaxel without ritonavir, 3D clonogenic assay): 2.5
- Relative resistance (22Rv1DOC8; cabazitaxel + ritonavir 10 µM): 7.4
- Relative resistance (22Rv1DOC8; cabazitaxel + ritonavir 32 µM): 1.0
- Relative resistance (22Rv1DOC8; cabazitaxel without ritonavir): 13.6

Structure (SMILES): COc1cc2c(cc1OC)CN(CCc1ccc(NC(=O)c3cccc4c(=O)c5cccc(OC)c5[nH]c34)cc1)CC2 [Elacridar]
- effect of elacridar alone on parental cells (DU-145 [2]; DU-145 parental, data not shown): no effect
- effect of elacridar alone on parental cells (22Rv1; 22Rv1 parental, data not shown): no effect
